The numbers were not newly measured in patent US20030083520A1, “Process for preparing bicyclic amino acid” (Pfizer Inc., priority 2001, published 2003), which cites them from elsewhere.

The test system of the data set is α2δ subunit derived from porcine brain tissue. Conditions: [3H]gabapentin radioligand.

Take `NC[C@]1(CC(=O)O)C[C@H]2CC[C@H]2C1` [(1α,3α,5α)(3-aminomethyl-bicyclo[3.2.0]hept-3-yl)-acetic acid]: the α2δ binding affinity was 0.038 µM. `NCC1(CC(=O)O)C[C@H]2CC[C@@H]2C1` (racemic) [(+/−)-(1α,5β)(3-Aminomethyl-bicyclo[3.2.0]hept-3-yl)-acetic acid]: the α2δ binding affinity is 2.86 µM.

Take `NC[C@@]1(CC(=O)O)C[C@H]2CC[C@H]2C1` [(1α,3β,5α)(3-Aminomethyl-bicyclo[3.2.0]hept-3-yl)-acetic acid]: the α2δ binding affinity was 0.332 µM.
